Measurements published in patent publication US9676789B2, “Aminated derivative of homoharringtonine, preparation method therefor, and application thereof” (HANGZHOU BENSHENG PHARMACEUTICAL CO., LTD., priority 2011, dated 2017).
Converted amounts (≈) assume the structure as drawn.

Columns and labels:
[1] = tested on: Jurkat (acute lymphoblastic leukemia, ALL); test: MTT leukemia cell growth inhibition, 72 h; format: cell-based, human; settings: Homo sapiens
Summary of the method: (§1)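 Using 6000 leukemia cells per well in 1640 medium supplemented with 10% fetal bovine serum, homoharringtonine derivatives at different concentrations were applied for 72 h, then viability was assessed by MTT.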

[2] = tested on: NB4 (acute promyelocytic leukemia, AML); test: MTT leukemia cell growth inhibition, 72 h; format: cell-based, human; settings: Homo sapiens, NB4, 72 h
Summary of the method: as §1

[3] = tested on: K562/adr (drug-resistant, chronic myeloid leukemia, CML); test: MTT leukemia cell growth inhibition, 72 h; format: cell-based, human; settings: Homo sapiens, K562/Adr
Summary of the method: as §1

[4] = tested on: Kasumi-1 (acute myeloid leukemia M2 type, AML-M2); test: MTT leukemia cell growth inhibition, 72 h; format: cell-based, human; settings: Homo sapiens, Kasumi-1, 72 h
Summary of the method: as §1

[5] = tested on: H9 (acute lymphoblastic leukemia, ALL); test: MTT leukemia cell growth inhibition, 72 h; format: cell-based, human; settings: Homo sapiens, H9, 72 h
Summary of the method: as §1

[6] = tested on: U87 MG (malignant glioma cell); test: MTT solid tumor cell growth inhibition, 72 h; format: cell-based, human; settings: Homo sapiens, U-87 MG
Summary of the method: (§2)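 Percent cell viability comes from the MTT method, normalised to untreated control wells as 100%. Compounds at varying concentrations were left on the cells for 72 h after a 24 h settling period, with 4000 cells seeded per well in 10% FBS-supplemented DMEM high glucose.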

[7] = tested on: CNE (nasopharyngeal carcinoma cell); test: MTT solid tumor cell growth inhibition, 72 h; format: cell-based, human; settings: Homo sapiens
Summary of the method: as §2

[8] = tested on: MG63 (osteosarcoma); test: MTT solid tumor cell growth inhibition, 72 h; format: cell-based, human; settings: Homo sapiens, MG 63, 72 h
Summary of the method: as §2

[9] = tested on: PANC-1 (pancreatic cancer); test: MTT solid tumor cell growth inhibition, 72 h; format: cell-based, human; settings: Homo sapiens, PANC-1, 72 h
Summary of the method: as §2

[10] = tested on: CaES-17 (esophageal cancer cell); test: MTT solid tumor cell growth inhibition, 72 h; format: cell-based, human; settings: Homo sapiens, CaEs17, CaES-17, 72 h
Summary of the method: as §2

[11] = tested on: PC-3 (prostate cancer); test: MTT solid tumor cell growth inhibition, 72 h; format: cell-based, human; settings: Homo sapiens, PC-3, 72 h
Summary of the method: as §2

[12] = tested on: SK-OV-3 (ovarian cancer cell); test: MTT solid tumor cell growth inhibition, 72 h; format: cell-based, human; settings: Homo sapiens, SK-OV-3, 72 h
Summary of the method: as §2

[13] = tested on: Becap37 (human breast cancer cell); test: MTT solid tumor cell growth inhibition, 72 h; format: cell-based; settings: Homo sapiens, Becap37, 72 h
Summary of the method: as §2

[14] = tested on: A549 (human lung cancer); test: MTT solid tumor cell growth inhibition, 72 h; format: cell-based; settings: Homo sapiens, A549, 72 h
Summary of the method: as §2

[15] = tested on: Hep-2 (human hepatocellular carcinoma); test: MTT solid tumor cell growth inhibition, 72 h; format: cell-based; settings: Homo sapiens, HEp-2, Hep2, 72 h
Summary of the method: as §2

[16] = tested on: RKO (human colon adenocarcinoma cell); test: MTT solid tumor cell growth inhibition, 72 h; format: cell-based; settings: Homo sapiens
Summary of the method: as §2

[17] = tested on: Huh7 (human liver cancer cell); test: MTT solid tumor cell growth inhibition, 72 h; format: cell-based; settings: Homo sapiens, Huh-7, Huh7, 72 h
Summary of the method: as §2

[18] = tested on: Hela (human cervical cancer cell); test: MTT solid tumor cell growth inhibition, 72 h; format: cell-based; settings: Homo sapiens, HeLa
Summary of the method: as §2

[19] = tested on: MGC 803 (human gastric cancer cell); test: MTT solid tumor cell growth inhibition, 72 h; format: cell-based; settings: Homo sapiens, MGC 803, 72 h
Summary of the method: as §2

[20] = tested on: RPMI8226 (multiple myeloma); test: MTT multiple myeloma cell growth inhibition, 72 h; format: cell-based, human; settings: Homo sapiens, RPMI-8226, RPMI8226, 72 h
Summary of the method: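 Viability determined by MTT after 72 h of compound exposure at 37° C under 5% CO2. Myeloma RPMI8226 cells were seeded at 6000 per well in 1640 medium containing 10% fetal bovine serum.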

[21] = tested on: A549, PANC-1, Becap37, MG63, Huh7, RKO, Hela, CaES-17, CNE, Hep-2, PC-3 and SK-OV-3; test: Anti-human solid tumor effect, summary over cell lines; format: cell-based; settings: result in words, summary of Table 2
Protocol: Human solid tumor cell lines: Hep-2 ([…]), A549 (human lung cancer), CaES-17 (esophageal cancer cell), PC-3 (prostate cancer), CNE (nasopharyngeal carcinoma cell), and SK-OV-3 (ovarian cancer cell), all of which are purchased from China Center For Type Culture Collection; RKO (human colon adenocarcinoma cell), MGC 803 (human gastric cancer cell), MG63 (osteosarcoma) and U87 MG (malignant glioma cell), all of which are purchased from Fuxiang Bio-tech Co. Ltd., Shanghai, China; PANC-1 (pancreatic cancer), Huh7 (human liver cancer cell), Becap37 (human breast cancer cell), and Hela (human cervical cancer cell), all of which are donated by Cancer Research Institute of Zhejiang University, China.
Obtaining 4000 well-growing human solid tumor cells and inoculating them into wells of a 96-well cell culture plate. The culture medium is DMEM High Glucose cell culture medium containing 10% fetal bovine serum. The plate is placed in a carbon dioxide cell incubator (5% CO2) at 37° C. and incubating for 24 hours. After adding the homoharringtonine derivatives of different concentration and mixing uniformly, the plate is placed in a carbon dioxide cell incubator (5% CO2) at 37° C. and incubating for 72 hours. Then the viable cell concentration is determined by the MTT method and the cell viability (%) after drug treatment is calculated. In this experiment, the cell viability of control group (not treated with any compound) is set as 100%.

SMILES: COC1=C[C@]23CCCN2CCc2cc4c(cc2[C@@H]3[C@@H]1OC(=O)[C@@](O)(CCCC(C)(C)O)CC(=O)N1CCN(c2ccc(F)cc2)CC1)OCO4 [BS-HH-046, O-3-[(2R)-2,6-dihydroxy-2-(2′-(4-(4-fluorophenyl)piperazinyl)-2′-oxoethyl)-6-methylheptanoyl]cephalotaxine]
- IC50 ([1]; read-out: IC50): 0.32 µg/mL (≈ 0.461 µM)
- IC90 ([1]; read-out: IC90): 15.2 µg/mL (≈ 21.9 µM)
- IC50 ([2]; read-out: IC50): 0.19 µg/mL (≈ 0.274 µM)
- IC90 ([2]; read-out: IC90): 0.5 µg/mL (≈ 0.721 µM)
- IC50 ([3]; read-out: IC50): 14.5 µg/mL (≈ 20.9 µM)
- IC90 ([3]; read-out: IC90): > 16 µg/mL
- IC50 ([4]; read-out: IC50): 0.26 µg/mL (≈ 0.375 µM)
- IC90 ([4]; read-out: IC90): 2.26 µg/mL (≈ 3.26 µM)
- IC50 ([5]; read-out: IC50): 0.5 µg/mL (≈ 0.721 µM)
- IC90 ([5]; read-out: IC90): 7.84 µg/mL (≈ 11.3 µM)
- IC50 ([6]; read-out: IC50): 0.25 µg/mL (≈ 0.36 µM)
- IC90 ([6]; read-out: IC90): > 16 µg/mL
- IC50 ([7]; read-out: IC50): 0.3 µg/mL (≈ 0.432 µM)
- IC90 ([7]; read-out: IC90): 16 µg/mL (≈ 23.1 µM)
- IC50 ([8]; read-out: IC50): 0.23 µg/mL (≈ 0.332 µM)
- IC90 ([8]; read-out: IC90): > 16 µg/mL
- IC50 ([9]; read-out: IC50): 0.45 µg/mL (≈ 0.649 µM)
- IC90 ([9]; read-out: IC90): > 16 µg/mL
- IC50 ([10]; read-out: IC50): 0.98 µg/mL (≈ 1.41 µM)
- IC90 ([10]; read-out: IC90): 16 µg/mL (≈ 23.1 µM)
- IC50 ([11]; read-out: IC50): 0.78 µg/mL (≈ 1.12 µM)
- IC90 ([11]; read-out: IC90): > 16 µg/mL
- IC50 ([12]; read-out: IC50): 1.89 µg/mL (≈ 2.72 µM)
- IC90 ([12]; read-out: IC90): > 16 µg/mL
- IC50 ([13]; read-out: IC50): 0.4 µg/mL (≈ 0.577 µM)
- IC90 ([13]; read-out: IC90): > 16 µg/mL
- IC50 ([14]; read-out: IC50): 0.84 µg/mL (≈ 1.21 µM)
- IC90 ([14]; read-out: IC90): > 16 µg/mL
- IC50 ([15]; read-out: IC50): 0.27 µg/mL (≈ 0.389 µM)
- IC90 ([15]; read-out: IC90): > 16 µg/mL
- IC50 ([16]; read-out: IC50): 0.054 µg/mL (≈ 0.0778 µM)
- IC90 ([16]; read-out: IC90): 0.93 µg/mL (≈ 1.34 µM)
- IC50 ([17]; read-out: IC50): 1.37 µg/mL (≈ 1.97 µM)
- IC90 ([17]; read-out: IC90): > 16 µg/mL
- IC50 ([18]; read-out: IC50): 1.56 µg/mL (≈ 2.25 µM)
- IC90 ([18]; read-out: IC90): > 16 µg/mL
- IC50 ([19]; read-out: IC50): 0.39 µg/mL (≈ 0.562 µM)
- IC90 ([19]; read-out: IC90): 8.28 µg/mL (≈ 11.9 µM)
- IC50 ([20]; read-out: IC50): 0.17 µg/mL (≈ 0.245 µM)
- IC90 ([20]; read-out: IC90): 0.72 µg/mL (≈ 1.04 µM)
- anti-A549, anti-PANC-1, anti-Becap37, anti-MG63, anti-Huh7, anti-RKO, anti-Hela, anti-CaES-17, anti-CNE, anti-Hep-2, anti-PC-3 and anti-SK-OV-3 effect [21]: strong
